Earlier results on one compound are cited in patent US10285987B2, “Device and kit for dosing and dispensing non-liquid medicine” (AmpliPharm Pharmaceuticals, LLC, priority 2017, dated 2019).

For this data set the following is noted: skin contact.

Take `Cn1nnc2c(C(N)=O)ncn2c1=O` [temozolomide, 3,4-dihydro-3-methyl-4-oxoimidazo [5,1-d]-as-tetrazine-8-carboxamide]: the “classification for skin corrosion/irritation and eye irritation” value is recorded as “category 2”.
